Test [1] has as its system tunicamycin sensitive clone JMEC. Put plainly: Apoptosis and recovery in the tunicamycin sensitive cell clone. Type of test: cell-based, bovine. The source says: To understand the precise molecular mechanism of tunicamycin induced apoptosis of capillary endothelial cells, a cell clone was isolated from the parental culture that was maintained in a serum-free media for six weeks following synchronization. The morphology of these cells and their growth profile appear quite different. For example, the shapes are more spindle-like, resembling Kaposi's Sarcoma lesions endothelial cells, as disclosed in FIORELLI et al., “Cytokines from Activated T Cells Induce Normal Endothelial Cells to Acquire the Phenotypic and Functional Features of AIDS-Kaposi's Sarcoma Spindle Cells”, J. Clin. Invest., 95:1723-1734 (1995), the disclosure of which is herein incorporated by reference in its entirety. The cells undergo two-population doubling in 2% (v/v) fetal bovine serum, differentiate in 5 days, and complete one cell cycle in approximately 56 hours (FIG. 4).
There was no recovery after exposing the cells to 1 μg/ml-10 μg/ml tunicamycin for 72 hours or more (not all data shown).

Test [2] concerns bovine adrenal medullary microvascular endothelial cells. Put plainly: Morphology by light microscopy and scanning electron microscopy. Type of test: cell-based. Conditions: 1 μg/ml tunicamycin, 2% (v/v) FBS. As for the experimental part:
The synchronized population of the above described bovine capillary endothelial cells was exposed to tunicamycin (lot number 10922120-07 from Boehringer-Mannheim, Indianapolis, Ind.) with no history of protein synthesis inhibition, for different lengths of time at various concentrations, as shown, e.g., in FIG. 3, in a complete EMEM containing 2% (v/v) fetal bovine serum (FBS) (heat-inactivated) at 37° C. to evaluate the morphological changes. The cells were monitored by phase-contrast light microscopy as well as by scanning electron microscopy.
For scanning electron microscopy, 5×10^3 cells were cultured on 13 mm round Thermanox coverslips in 12 well clusters (COSTAR) in complete EMEM. Cells were synchronized as mentioned above and cultured in EMEM containing either 2% (v/v) FBS (control), 10% (v/v) FBS or 2% (v/v) FBS plus 1 μg/ml tunicamycin. The coverslips were removed at specified times and the cells were fixed in 2.5% (v/v) glutaraldehyde for 30 minutes. The cells were washed three times (10 minutes each) with Millonigs (1961) isotonic phosphate buffer, pH 7.3, and treated with 1% (w/v) osmium tetroxide for 15 minutes. See MILLONIG, “Advantages of a Phosphate Buffer for Osmium Tetroxide Solutions in Fixation”, J. Appl. Physics, 32:1637 (1961), the disclosure of which is herein incorporated by reference in its entirety. […]

“Also recorded” adds a separate entry of the source.

Take tunicamycin: the “concentration for apoptosis less than needed for parental cells” value in test [1] (10 ng/ml in clone versus parental cells) was 100 fold. Further, the figures for the “cells recovered in 5 days” value in test [1] (10 ng/ml tunicamycin for 24 hours) and in test [1] (1 μg/ml tunicamycin for 48 hours) were “approximately 60%” and “recovered similarly”, respectively. Besides, the “apoptosis of the sensitive clone” value in test [1] (10 ng/ml tunicamycin, 32 hours) is recorded as “undergoes apoptosis”. Moreover, the recovery of cells entry in test [1] (1 μg/ml-10 μg/ml tunicamycin for 72 hours or more) is reported as “no recovery”. In addition, in test [1] (10 μg/ml tunicamycin for 48 hours), the cells recovered result is reported as “less than 20%”. Besides, the “morphology by light microscopy” value in test [2] is “cell shrinkage, loss of membrane contact with neighboring cells, apparent compaction of nuclei showing condensed pyknotic appearance and membrane fragmentation; also recorded: cell shrinkage, loss of membrane contact with neighboring cells, apparent compaction of nuclei showing condensed pyknotic appearance, and membrane fragmentation”. Besides, the “surface morphology by scanning electron microscopy” value in test [2] (96 hours) was “considerable surface blebbing; also recorded: enormous surface blebbing”.

These data come from US7361643B2, “Methods for inhibiting angiogenesis” (University of Puerto Rico, priority 2000, dated 2008).
